Test results from article PMC3429506, “Screening for Novel LRRK2 Inhibitors Using a High-Throughput TR-FRET Cellular Assay for LRRK2 Ser935 Phosphorylation” (PLoS ONE, 2012).
Several values for one entry are separate records, joined by “and”; a condition that tells them apart may be missing. Equal entries are not always repeated.

These compounds were tested on SH-SY5Y cells expressing LRRK2-GFP G2019S (assay: not given). Conditions: not given.

Row | Compound | IC50
1 | CCc1ccc(OCc2ccccc2C(=O)Nc2ccc3nc(C)cc(N)c3c2)cc1 [JTC 801] | 10 µM

Each compound was assayed on SH-SY5Y cells expressing LRRK2-GFP G2019S (assay: Cytotoxicity assay (resazurin-based cell viability)). Conditions: read-out: Cytotoxicity Assay IC50; same conditions as TR-FRET follow-up; one representative of two experiments.

Row | Compound | IC50
2 | O=C(O)/C=C\C(=O)O.O=C1/C(=C/c2ccccc2)C[C@@]2(O)[C@H]3Cc4ccc(O)c5c4[C@@]2(CCN3CC2CC2)[C@H]1O5 [BNTX maleate] | > 20 µM
3 | O=C1C(SCCO)=C(SCCO)C(=O)c2ccccc21 [NSC 95397] | 7.8 µM
4 | NC(=O)Nc1sc(-c2ccc(F)cc2)cc1C(N)=O [TPCA-1] | > 20 µM

Each compound was assayed against T1, GFP-LRRK2 G2019S (Homo sapiens, UniProt Q5S007, G2019S) (assay: Immunoprecipitation/Western analysis of LRRK2 phosphorylation at Ser910, Ser935, Ser955, Ser973 in HEK293 T-REx GFP-LRRK2 G2019S cells). Conditions: 20 µM, 90 min, HEK293 GFP-LRRK2 G2019S, Figure 6.
T1 construct: expressed in transfected cells
T1 sequence (Q5S007 whole entry G2019S): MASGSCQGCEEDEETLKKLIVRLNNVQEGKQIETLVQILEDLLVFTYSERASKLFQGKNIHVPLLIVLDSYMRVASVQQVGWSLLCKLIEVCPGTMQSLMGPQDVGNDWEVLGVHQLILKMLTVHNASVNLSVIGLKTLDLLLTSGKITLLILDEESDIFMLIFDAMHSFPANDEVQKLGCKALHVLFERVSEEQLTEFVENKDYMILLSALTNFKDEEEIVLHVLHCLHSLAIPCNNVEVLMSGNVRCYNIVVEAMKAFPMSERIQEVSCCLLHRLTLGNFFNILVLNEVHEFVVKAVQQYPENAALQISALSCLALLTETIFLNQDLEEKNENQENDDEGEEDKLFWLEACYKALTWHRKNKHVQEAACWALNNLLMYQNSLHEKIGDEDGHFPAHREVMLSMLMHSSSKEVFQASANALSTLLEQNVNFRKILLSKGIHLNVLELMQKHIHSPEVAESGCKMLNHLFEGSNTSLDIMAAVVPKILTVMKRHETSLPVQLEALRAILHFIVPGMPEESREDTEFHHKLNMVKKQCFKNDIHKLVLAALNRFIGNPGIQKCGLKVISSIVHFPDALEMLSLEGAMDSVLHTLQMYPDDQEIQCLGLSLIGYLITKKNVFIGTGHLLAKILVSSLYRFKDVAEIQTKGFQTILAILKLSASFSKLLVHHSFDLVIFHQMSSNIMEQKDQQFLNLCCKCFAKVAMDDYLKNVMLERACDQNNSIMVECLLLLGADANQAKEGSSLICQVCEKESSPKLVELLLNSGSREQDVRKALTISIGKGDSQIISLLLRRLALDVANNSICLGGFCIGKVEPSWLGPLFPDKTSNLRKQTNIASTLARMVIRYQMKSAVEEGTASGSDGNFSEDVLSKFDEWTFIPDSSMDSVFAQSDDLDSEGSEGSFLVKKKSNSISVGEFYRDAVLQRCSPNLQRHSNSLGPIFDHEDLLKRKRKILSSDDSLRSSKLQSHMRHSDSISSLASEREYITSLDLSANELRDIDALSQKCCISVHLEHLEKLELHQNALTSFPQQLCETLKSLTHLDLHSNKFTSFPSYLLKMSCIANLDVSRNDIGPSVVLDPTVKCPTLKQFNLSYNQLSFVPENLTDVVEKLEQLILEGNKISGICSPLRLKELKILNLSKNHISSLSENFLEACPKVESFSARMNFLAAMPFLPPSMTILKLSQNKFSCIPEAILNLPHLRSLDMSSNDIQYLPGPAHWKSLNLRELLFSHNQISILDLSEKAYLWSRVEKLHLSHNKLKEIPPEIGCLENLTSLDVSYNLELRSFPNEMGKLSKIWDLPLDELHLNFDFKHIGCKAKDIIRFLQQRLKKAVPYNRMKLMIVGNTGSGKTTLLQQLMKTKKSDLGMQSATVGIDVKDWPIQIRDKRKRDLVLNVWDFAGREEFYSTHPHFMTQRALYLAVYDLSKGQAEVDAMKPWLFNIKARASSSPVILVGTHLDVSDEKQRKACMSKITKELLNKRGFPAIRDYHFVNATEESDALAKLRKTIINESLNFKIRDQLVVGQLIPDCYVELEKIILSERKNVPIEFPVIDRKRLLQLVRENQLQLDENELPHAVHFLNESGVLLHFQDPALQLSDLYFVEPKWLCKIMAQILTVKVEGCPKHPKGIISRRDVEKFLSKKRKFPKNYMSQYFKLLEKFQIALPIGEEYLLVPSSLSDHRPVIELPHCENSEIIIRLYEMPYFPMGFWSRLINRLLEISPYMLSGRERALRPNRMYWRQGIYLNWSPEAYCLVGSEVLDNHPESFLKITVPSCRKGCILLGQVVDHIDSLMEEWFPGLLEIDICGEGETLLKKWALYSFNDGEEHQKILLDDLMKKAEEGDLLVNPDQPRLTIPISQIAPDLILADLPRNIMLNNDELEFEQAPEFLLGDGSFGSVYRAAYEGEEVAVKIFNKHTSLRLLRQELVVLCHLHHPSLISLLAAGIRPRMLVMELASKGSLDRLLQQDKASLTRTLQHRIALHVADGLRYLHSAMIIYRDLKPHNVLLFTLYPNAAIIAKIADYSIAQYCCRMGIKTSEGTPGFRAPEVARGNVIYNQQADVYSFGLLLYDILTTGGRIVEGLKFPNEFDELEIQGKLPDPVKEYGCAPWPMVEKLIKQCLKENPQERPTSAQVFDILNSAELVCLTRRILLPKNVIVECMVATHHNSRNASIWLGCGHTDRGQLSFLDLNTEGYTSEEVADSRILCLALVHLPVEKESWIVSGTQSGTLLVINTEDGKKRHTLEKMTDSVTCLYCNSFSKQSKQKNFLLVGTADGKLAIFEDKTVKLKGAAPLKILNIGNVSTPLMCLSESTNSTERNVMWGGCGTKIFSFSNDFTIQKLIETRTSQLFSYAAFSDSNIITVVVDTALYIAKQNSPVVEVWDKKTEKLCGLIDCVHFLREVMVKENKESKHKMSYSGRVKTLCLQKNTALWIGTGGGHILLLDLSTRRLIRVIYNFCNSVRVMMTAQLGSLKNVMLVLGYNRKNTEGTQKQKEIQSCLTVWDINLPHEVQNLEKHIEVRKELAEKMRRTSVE
Type: cell-based
Experimental: Immunoblot analysis: BacMam LRRK2-GFP transduced U-2 OS or SH-SY5Y cells (10^7 cells) were left untreated or treated with 3 µM LRRK2-IN-I for 90 min. For lysate preparation, the cells were washed once with ice-cold PBS and lysed by addition of ice-cold lysis buffer (20 mM Tris-HCl, pH 7.4, 1% NP-40, 5 mM EDTA, 5 mM NaF, 150 mM NaCl, and 1∶100 of protease and phosphatase inhibitor cocktails). The lysate was cleared of debris by centrifugation. Equal amount of total protein was loaded onto each lane for SDS-PAGE (3–8% Tris Acetate). The proteins were transferred onto nitrocellulose membrane using the iBLOT® dry blotting system (Life Technologies) according to manufacturer’s protocol. The membranes were blocked and incubated with a primary antibody against LRRK2 (Cell Signaling Technologies), followed by incubation with alkaline phosphatase-conjugated secondary antibody (WesternBreeze® chromogenic Kit, Life Technologies). The blot was developed by using the chromogenic BCIP/NBT substrate (WesternBreeze® chromogenic Kit, Life Technologies). […] Two days post induction, cells were treated for 90 minutes in the presence of 20 µM of compound or DMSO vehicle control. Cells were rapidly lysed in ice cold lysis buffer 50 mM Tris/HCl, pH 7.5, 1 mM EGTA, 1 mM EDTA, […] 1 mM sodium orthovanadate, 10 mM sodium beta-glycerolphosphate, 50 mM NaF, 5 mM sodium pyrophosphate, 0.27 M sucrose, 1 mM benzamidine and 2 mM phenylmethanesulphonylfluoride (PMSF) and one tablet each complete protease inhibitor and PhosSTOP phosphatase inhibitor (Roche) and was supplemented with 1% (v/v) Triton X-100. GFP-LRRK2 was immunoprecipitated with GFP nanotrap beads (ChromoTek). Immunecomplexes were washed twice with lysis buffer supplemented with 300 mM NaCl and once with Buffer A (50 mM Tris/HCl, pH 7.5, 50 mM NaCl, 0.1 mM EGTA and 0.1% (v/v) 2-mercaptoethanol, and 0.27 M sucrose).

Row | Compound | effect on phosphorylation of Ser910, Ser935, Ser955 and Ser973 (IP-Western)
5 | O=C(O)/C=C\C(=O)O.O=C1/C(=C/c2ccccc2)C[C@@]2(O)[C@H]3Cc4ccc(O)c5c4[C@@]2(CCN3CC2CC2)[C@H]1O5 [BNTX maleate] | moderately reduced phosphorylation of all four residues
6 | O=C1C(SCCO)=C(SCCO)C(=O)c2ccccc21 [NSC 95397] | moderately reduced phosphorylation of all four residues
7 | CCc1ccc(OCc2ccccc2C(=O)Nc2ccc3nc(C)cc(N)c3c2)cc1 [JTC 801] | moderately reduced phosphorylation of all four residues

What follows are compounds tested against T2, LRRK2 G2019S (Homo sapiens, UniProt Q5S007, G2019S) (assay: TR-FRET cellular assay for LRRK2 Ser935 phosphorylation, SH-SY5Y cells, BacMam LRRK2-GFP G2019S (incl. Tocriscreen Mini library screen and follow-up)). Conditions: 20 µM.
T2 sequence (Q5S007 whole entry G2019S): as above
Type: cell-based
Design: This high-throughput assay utilizes cells expressing full-length human LRRK2 with a C-terminal GFP tag (LRRK2-GFP); host or cells: SH-SY5Y cells transduced with BacMam
Experimental: U-2 OS cells are maintained in growth medium (McCoy’s 5A supplemented with 10% dialyzed FBS (dFBS), 10 mM HEPES, 0.1 mM NEAA, 1 mM Sodium Pyruvate, and 100 U/mL Penicillin/100 µg/mL Streptomycin). HEK293T cells are maintained in DMEM with 10% dFBS, 10 mM HEPES, 0.1 mM NEAA and 100 U/mL Penicillin/100 µg/mL Streptomycin. SH-SY5Y cells are maintained in DMEM/F-12 medium supplemented with 10% dFBS and 100 U/mL Penicillin/100 µg/mL Streptomycin. […] GIBCO® human neural stem cells (hNSCs) were propagated as an adherent culture in StemPro® NSC SFM according to the manufacturer’s recommended protocol (Life Technologies). For BacMam transduction of U-2 OS and HEK293T, cells were harvested, mixed with various amounts of BacMam LRRK2-GFP reagent (v/v) and plated onto 6-well plates. […] Cells were assayed in 384-well format (∼20,000 cells/well) 48 hours post-transduction as above.
Transduced cells in the 384-well assay plate were incubated with indicated inhibitors (5X, 5 µL/well) for 60 to 90 minutes. During this time, 6 X lysis buffer (Life Technologies) was supplemented with 30 nM Tb-labeled anti-LRRK2 pSer935 antibody and both protease and phosphatase inhibitor cocktails (Sigma). The complete 6 X lysis buffer was added to each well (5 µL/well) and the plates were incubated at room temperature in the dark for 2 hours. […] A sigmoidal dose-response equation with varying slope was used to fit the data and generate IC50 values. Z′-factor values were calculated as: Z′-factor = 1 - [(3 × stdevno virus +3 × stdevmaxvirus)/(avgmaxvirus – avgno-virus)]. The IC50 values reported in Table 1 are the averaged numbers from three independent experiments.
40 nL of 10 mM Tocris library compounds in DMSO were dispensed into each well of the assay plate by the ECHO system. Equal volumes of DMSO were dispensed into the control wells. Cells were incubated with compounds for 90 to 120 min prior to cell lysis and detection as described above. The percent inhibition is calculated as: [(average emission ratios of DMSO control wells – average emission ratios of compound wells)/(average emission ratios of DMSO control wells – average emission ratios of LRRK2-IN-1 treated wells)] * 100. For the dose-response follow-up studies, fresh compound DMSO stock solutions were prepared from powder. […] Z′-factor value was calculated as: Z′-factor = 1 - [(3 × stdevLRRK2-IN-1+3 × stdevDMSO)/(avgDMSO – avgLRRK2-IN-1)]. The IC50 values reported in Table 2 are the averaged numbers from three independent experiments for both cellular and biochemical TR-FRET assays and one representative result of two independent experiments for the cytotoxicity assay.

Row | Compound | %Inhibition Initial screen
8 | O=C(O)/C=C\C(=O)O.O=C1/C(=C/c2ccccc2)C[C@@]2(O)[C@H]3Cc4ccc(O)c5c4[C@@]2(CCN3CC2CC2)[C@H]1O5 [BNTX maleate] | 70% and 69.7%

Same assay, conditions: Tocriscreen Mini library screen, 20 µM, SH-SY5Y G2019S, relative to LRRK2-IN-1 control

Row | Compound | %Inhibition Initial screen
9 | O=C(CCCN1CCC2(CC1)C(=O)N(Cc1cccc(F)c1)CN2c1ccccc1)c1ccc(F)cc1.O=C(O)/C=C\C(=O)O [3′-fluorobenzylspiperone maleate] | 53%
10 | O=C1C(SCCO)=C(SCCO)C(=O)c2ccccc21 [NSC 95397] | 76.1%
11 | CCc1ccc(OCc2ccccc2C(=O)Nc2ccc3nc(C)cc(N)c3c2)cc1 [JTC 801] | 90.1%
12 | NC(=O)Nc1sc(-c2ccc(F)cc2)cc1C(N)=O [TPCA-1] | 54.8%
13 | Nc1nc(Nc2ccccc2)nc2c1ncn2[C@@H]1O[C@H](CO)[C@@H](O)[C@H]1O [CV1808] | 55%

Same assay, conditions: Tocriscreen Mini library screen, 20 µM, SH-SY5Y G2019S, relative to LRRK2-IN-1 control; listed as JTC801, 20 µM

Row | Compound | %Inhibition Initial screen
14 | CCc1ccc(OCc2ccccc2C(=O)Nc2ccc3nc(C)cc(N)c3c2)cc1 [JTC 801] | 90%

Same assay, conditions: Tocriscreen library, 20 µM, SH-SY5Y G2019S

Row | Compound | dephosphorylation of Ser935 in library screen
15 | Cn1cc(C2=C(c3cn(CCCSC(=N)N)c4ccccc34)C(=O)NC2=O)c2ccccc21 [Ro31-8220] | did not observe in vivo dephosphorylation of Ser935
16 | CN(C)CCCn1cc(C2=C(c3c[nH]c4ccccc34)C(=O)NC2=O)c2ccccc21 [GF109203X] | did not observe in vivo dephosphorylation of Ser935

Same assay, conditions: dose-response follow-up, SH-SY5Y G2019S, 90 min

Row | Compound | Cellular TR-FRET Assay Max % Inhibition
17 | O=C(O)/C=C\C(=O)O.O=C1/C(=C/c2ccccc2)C[C@@]2(O)[C@H]3Cc4ccc(O)c5c4[C@@]2(CCN3CC2CC2)[C@H]1O5 [BNTX maleate] | 88%
18 | O=C1C(SCCO)=C(SCCO)C(=O)c2ccccc21 [NSC 95397] | 80%
19 | CCc1ccc(OCc2ccccc2C(=O)Nc2ccc3nc(C)cc(N)c3c2)cc1 [JTC 801] | 84%
20 | NC(=O)Nc1sc(-c2ccc(F)cc2)cc1C(N)=O [TPCA-1] | 50%

Same assay, conditions: dose-response follow-up, SH-SY5Y G2019S, three independent experiments; read-out: Cellular TR-FRET Assay IC50 +/-SD

Row | Compound | IC50
21 | O=C(O)/C=C\C(=O)O.O=C1/C(=C/c2ccccc2)C[C@@]2(O)[C@H]3Cc4ccc(O)c5c4[C@@]2(CCN3CC2CC2)[C@H]1O5 [BNTX maleate] | 4 µM
22 | O=C1C(SCCO)=C(SCCO)C(=O)c2ccccc21 [NSC 95397] | 1.3 µM
23 | CCc1ccc(OCc2ccccc2C(=O)Nc2ccc3nc(C)cc(N)c3c2)cc1 [JTC 801] | 9.6 µM
24 | NC(=O)Nc1sc(-c2ccc(F)cc2)cc1C(N)=O [TPCA-1] | 0.1 µM

Each compound was assayed against T2, LRRK2 G2019S (assay: In vitro biochemical LRRK2 TR-FRET activity assay). Conditions: LRRK2 G2019S, ATP 134 µM (Km,app), LRRKtide substrate, three independent experiments; read-out: Biochemical LRRK2 assay IC50 +/- SD.
Experimental: The Biochemical LRRK2 TR-FRET activity assay was performed according to the manufacture recommended assay protocol (Life Technologies). […] After incubation at room temperature for 1 hour, the kinase reactions were stopped by addition of 10 µL of 20 mM EDTA and 4 nM Tb-anti-pERM (pLRRKtide) antibody in TR-FRET dilution buffer (Life Technologies). After a 30 minute incubation at room temperature, TR-FRET measurements were obtained on a BMG PHERAstar plate reader using LanthaScreen® filters and settings. A 16 point, 2-fold dilution series of each compound was tested in triplicate at each concentration and assays were also performed in triplicate.

Row | Compound | IC50
25 | O=C(O)/C=C\C(=O)O.O=C1/C(=C/c2ccccc2)C[C@@]2(O)[C@H]3Cc4ccc(O)c5c4[C@@]2(CCN3CC2CC2)[C@H]1O5 [BNTX maleate] | > 100 µM
26 | O=C1C(SCCO)=C(SCCO)C(=O)c2ccccc21 [NSC 95397] | 15 µM
27 | CCc1ccc(OCc2ccccc2C(=O)Nc2ccc3nc(C)cc(N)c3c2)cc1 [JTC 801] | > 100 µM

Same assay, conditions: result in words

Row | Compound | effect on LRRK2 activity in vitro
28 | O=C(O)/C=C\C(=O)O.O=C1/C(=C/c2ccccc2)C[C@@]2(O)[C@H]3Cc4ccc(O)c5c4[C@@]2(CCN3CC2CC2)[C@H]1O5 [BNTX maleate] | did not repress LRRK2 activity in vitro
29 | CCc1ccc(OCc2ccccc2C(=O)Nc2ccc3nc(C)cc(N)c3c2)cc1 [JTC 801] | did not repress LRRK2 activity in vitro
